In patent US10195156B2, “Compounds and compositions for intracellular delivery of agents” (ModernaTX, Inc., priority 2015, dated 2019):
“Also recorded” adds a separate entry of the source. Like-named read-outs stand apart in the source and are kept apart here.

Experiments:
[1] = Concentration of RNA in nanoparticle composition (ultraviolet-visible spectroscopy); format: physicochemical; settings: Table 5, hEPO mRNA
[2] = test system: modified luciferase expression; assay: Expression of Luc in different organs (liver, lung, spleen, femur) 6 hours after intravenous administration; format: in vivo; settings: i.v., 0.5 mpk
Method: The efficacy of the nanoparticle compositions presented in Tables 1, 1a, 17-1, 19-1, 20-1 and 21-1 was further evaluated by measuring the expression of modified luciferase in the liver, lung, spleen, and femur upon administration of a given composition. Formulations were administered intravenously to mice (n=3) at a dosage of 0.5 mpk and bioluminescence measured after 6 hours. The standard MC3 formulation and a PBS control were also tested.

[3] = test system: IL-6; assay: Cytokine production induced by sample formulations: IL-6; format: in vivo; settings: mice, i.v., 0.5 mpk, 6 hours; for IL-6: in pg/mL (unit assumed)
Method in brief: (§1)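 Cytokine levels were quantified at 6 hours in mice given the nanoparticle compositions i.v. at 0.5 mpk. MC3 standard formulation and PBS served as comparators.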

[4] = Encapsulation efficiency of RNA (QUANT-IT RIBOGREEN RNA assay); format: physicochemical
Method in brief: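 RiboGreen fluorescence (ex ~480, em ~520 nm) measured after 15 min at 37 °C on samples at ~5 μg/mL in TE, pH 7.5, ± 2% Triton X-100 solution. After blank subtraction, free RNA is given as intact-sample signal divided by disrupted-sample signal.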

[5] = Lipid levels in liver and spleen 48 hours after administration; format: in vivo, rats; settings: for concentration at 48 h: Sprague-Dawley, rat, intravenous
Method in brief: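 Rats (n=3 or 6) received lipid nanoparticle formulations intravenously at 0.2 mg/kg or 0.5 mg/kg. Liver and spleen were harvested and frozen 48 h after dosing, and the lipid amount remaining in each tissue was measured and expressed as a fraction of the dose.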

[6] = test system: hEPO mRNA expression; assay: Expression of hEPO in rats after intravenous administration; format: in vivo; settings: for hEPO (pg/mL) 3 hours / hEPO (pg/mL) 6 hours / hEPO (pg/mL) 24 hours: Table 6, 0.2 mg/kg or 0.5 mg/kg; for Lipid/MC3 hEPO S.D. (rats): hEPO expression relative to MC3, S.D. rats, intravenous
Method: PBS (phosphate buffered saline) is used as control.
Formulations were prepared according to Table 5 and included mRNA encoding hEPO.
[…] After the 48 hour time point, livers and spleens were harvested and frozen.

[7] = test system: IP-10; assay: Cytokine production induced by sample formulations: IP-10; format: in vivo; settings: mice, i.v., 0.5 mpk, 6 hours; for IP-10: in pg/mL (unit assumed)
Method in brief: as §1

[8] = Particle size and polydispersity index of nanoparticle compositions (Zetasizer Nano ZS); format: physicochemical
Method in brief: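 Values are size and PDI readings from a Zetasizer Nano ZS. Measurements are taken in 1×PBS; zeta potential, by contrast, uses 15 mM PBS.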

[9] = Table 1, rows without footnote mark
[10] = Table 5, hEPO mRNA, 40:20:38.5:1.5 Lipid:DOPE:Chol:PEG-DMG
[11] = liver, 48 hours after administration, read-out: Lipid in liver
[12] = spleen, 48 hours after administration, read-out: Lipid in spleen
[13] = liver, 48 hours after administration
[14] = spleen, 48 hours after administration
[15] = Table 1, rows without footnote mark (lipid:DOPE:cholesterol:PEG-DMG 40:20:38.5:1.5, Luc mRNA; MC3 standard formulation)
[16] = Table 5, hEPO mRNA, 50:10:38.5:1.5 Lipid:DSPC:Chol:PEG-DMG
[17] = Table 20-1, rows without footnote mark

## CCCCCCCCCCCCN(CCCCCCCCCCCC)CCN(CCCCCCCCCCCC)CCN1CCN(CCN(CCCCCCCCCCCC)CCCCCC(=O)OCCCCC)CC1 [Compound 12, Pentyl 6-((2-(4-(2-((2-(didodecylamino)ethyl)(dodecyl)amino)ethyl)piperazin-1-yl)ethyl)(dodecyl)amino)hexanoate]
[1]; 40:20:38.5:1.5 Lipid:DOPE:Chol:PEG-DMG
  Conc.: 320.14 µg/mL
[2]; Table 3, mice, liver
  Total Flux Liver: 1.05E+09
[2]; Table 3, mice
  Total Flux Lung: 6.76E+06
  Total Flux Spleen: 1.11E+07
[3]; Table 4
  IL-6: 31
[4]; [9]
  EE (%): 96.9%
[4]; [10]
  EE (%): 93.79%
[5]; [11]
  concentration at 48 h: 16800 ng/g
[5]; [12]
  concentration at 48 h: 2320 ng/g
[5]; [13]
  % remaining dose in liver: 23.8%
[5]; [14]
  % remaining dose in spleen: 0.22%
[6]; rats, i.v.
  hEPO (pg/mL) 3 hours: 592260 pg/mL
  hEPO (pg/mL) 6 hours: 424740 pg/mL
  hEPO (pg/mL) 24 hours: 165404 pg/mL
[6]
  Lipid/MC3 hEPO S.D. (rats): 0.32
[7]; Table 4
  IP-10: 2382
[8]; [9]
  PDI: 0.096
[8]; [15]
  Size (nm): 87.8 nm
[8]; [10]
  PDI: 0.13
  Size (nm): 87.5 nm

## CCCCCC=CCC=CCCCCCCCCC(CCCCCCCCC=CCC=CCCCCC)OC(=O)CCCN(C)C (stereo not shown) [MC3, heptatriaconta-6,9,28,31-tetraen-19-yl 4-(dimethylamino)butanoate, reference compound]
[1]; 50:10:38.5:1.5 Lipid:DSPC:Chol:PEG-DMG
  Conc.: 470.45 µg/mL
[2]; Table 3, mice
  Total Flux Femur: 3.08E+06
  Total Flux Lung: 8.61E+06
  Total Flux Spleen: 1.95E+07
[2]; Table 3, mice, liver
  Total Flux Liver: 2.31E+09
[2]; Table 17-3, mice
  Total Flux Femur: 6.03E+06
  Total Flux Lung: 7.25E+06
  Total Flux Spleen: 2.62E+07
[2]; Table 17-3, mice, liver
  Total Flux Liver: 2.75E+09
[2]; Table 19-3, mice, liver
  Total Flux Liver: 2.39E+09
[2]; Table 19-3, mice
  Total Flux Lung: 5.83E+06
  Total Flux Spleen: 2.45E+07
[2]; Table 20-3, mice
  Total Flux Femur: 2.60E+06
  Total Flux Lung: 1.28E+07
  Total Flux Spleen: 2.85E+07
[2]; Table 20-3, mice, liver
  Total Flux Liver: 2.48E+09
[2]; Table 21-3, mice, liver
  Total Flux Liver: 3.05E+09
[2]; Table 21-3, mice
  Total Flux Lung: 6.60E+06
  Total Flux Spleen: 4.73E+07
[2]; mice, each organ or overall, 0.5 mg/kg
  total flux in organs, rank or organ comparison (in words): highest total flux; also recorded: highest expression in each organ
[2]; mice, liver
  total flux in the liver, rank within the named table (in words): highest
[3]; Table 4
  IL-6: 92
[3]; Table 17-4
  IL-6: 107
[3]; Table 19-4
  IL-6: 65.7
[3]; Table 20-4, formula (20-I)
  IL-6: 119.5
[3]
  IL-6 induction, rank within the named table (in words): highest IL-6 and IP-10 levels
[4]; [9]
  EE (%): 97.70%
[4]; Table 1b
  EE (%): 97.3%
[4]; [16]
  EE (%): 97.37%
[4]; Table 17-1
  EE (%): 98.0%
[4]; Table 19-1
  EE (%): 97.6%
[4]; [17]
  EE (%): 97.4%
[4]; Table 21-1
  EE (%): 98.1%
[5]; [11]
  concentration at 48 h: 21800 ng/g
[5]; [12]
  concentration at 48 h: 2780 ng/g
[5]; [13]
  % remaining dose in liver: 51%
  dose remaining in the liver after 48 hours: approximately 60%
[5]; rat liver, 48 h
  % dose remainng Rat liver (48 h): 43.11%
[5]; [14]
  % remaining dose in spleen: 0.44%
[6]; rats, i.v.
  hEPO (pg/mL) 3 hours: 1407947 pg/mL
  hEPO (pg/mL) 6 hours: 1036013 pg/mL
  hEPO (pg/mL) 24 hours: 436243 pg/mL
[6]; hEPO expression in S.D. rats, 0.1 mpk
  AUC (0.1 mpk): 1.62E+06
[6]; hEPO expression in S.D. rats, 1 mpk
  AUC (1 mpk): 1.17E+08
[6]
  Lipid/MC3 hEPO S.D. (rats): 1
[6]; rats, i.v., 0.2 or 0.5 mg/kg, Tables 6, 7a
  hEPO expression in rats, comparison (in words): highest hEPO expression at each time point
[7]; Table 4
  IP-10: 438
[7]; Table 17-4
  IP-10: 500
[7]; Table 19-4
  IP-10: 323.9
[7]; Table 20-4, formula (20-I)
  IP-10: 499.1
[7]
  IP-10 induction, rank or comparison with IL-6 (in words): highest IL-6 and IP-10 levels
[8]; [9]
  PDI: 0.117
[8]; [15]
  Size (nm): 86.2 nm
[8]; Table 1b
  PDI: 0.17
  Size (nm): 74.7 nm
[8]; [16]
  PDI: 0.11
  Size (nm): 76.5 nm
[8]; Table 17-1
  PDI: 0.138
  Size (nm): 83.8 nm
[8]; Table 19-1
  PDI: 0.122
  Size (nm): 83.3 nm
[8]; [17]
  PDI: 0.117
  Size (nm): 84.0 nm
[8]; Table 21-1
  PDI: 0.1191
  Size (nm): 91.4 nm
